Measured values reported in ChEMBL document CHEMBL1201862, “PubChem BioAssay data set” (2004).
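Exposure lasted 48 hours, with cells grown in 96-well plates and compounds tested at five concentrations. Here, GI50 denotes the concentration required for 50% inhibition of growth.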 Calls of active or inactive are those of the source. No stated cut-off is given here; in the data, active = GI50 up to about 1.1 µM and inactive = higher.

Tests used:
Test in all cases: NCI tumour cell line growth inhibition, 48 h
BT-549 = test system: BT-549
SK-OV-3 = test system: SK-OV-3
SK-MEL-5 = test system: SK-MEL-5
RPMI-8226 = test system: RPMI-8226
HOP-92 = test system: HOP-92
NCI/ADR-RES = test system: NCI/ADR-RES
Hs-578T = test system: Hs-578T
NCI-H522 = test system: NCI-H522
MDA-MB-435 = test system: MDA-MB-435
K562 = test system: K562
CAKI-1 = test system: CAKI-1
SNB-19 = test system: SNB-19
786-0 = test system: 786-0
SF-268 = test system: SF-268
TK-10 = test system: TK-10
U-251 = test system: U-251
MDA-N = test system: MDA-N
HT-29 = test system: HT-29
HCC 2998 = test system: HCC 2998

C=CCn1c(-c2ccc(/N=N/Nc3ccc(-c4n[nH]c(=S)n4CC=C)cc3)cc2)n[nH]c1=S
GI50 (BT-549): 2.3 µM (inactive)
GI50 (SK-OV-3): 11.7 µM (inactive)
GI50 (SK-MEL-5): 1.53 µM (inactive)
GI50 (RPMI-8226): 1.76 µM (inactive)
GI50 (HOP-92): 7.31 µM (inactive)
GI50 (NCI/ADR-RES): 21.4 µM (inactive)
GI50 (Hs-578T): 5.15 µM (inactive)
GI50 (NCI-H522): 2.92 µM (inactive)
GI50 (MDA-MB-435): 3.33 µM (inactive)
GI50 (K562): 2.12 µM (inactive)
GI50 (CAKI-1): 4.57 µM (inactive)
GI50 (SNB-19): 27 µM (inactive)
GI50 (786-0): 8.41 µM (inactive)
GI50 (SF-268): 5.06 µM (inactive)
GI50 (TK-10): 11.8 µM (inactive)
GI50 (U-251): 4.36 µM (inactive)

O=[N+]([O-])c1ccc2oc(=N/c3ccccc3)/c(=N\c3ccccc3)[nH]c2c1
GI50 (SK-OV-3): 55.7 µM (inactive)
GI50 (SK-MEL-5): 75.9 µM (inactive)
GI50 (RPMI-8226): > 100 µM (inactive)
GI50 (HOP-92): 28.2 µM (inactive)
GI50 (NCI/ADR-RES): 51.1 µM (inactive)
GI50 (Hs-578T): 19.7 µM (inactive)
GI50 (NCI-H522): 6.97 µM (inactive)
GI50 (MDA-MB-435): > 100 µM (inactive)
GI50 (MDA-N): 54.5 µM (inactive)
GI50 (K562): > 100 µM (inactive)
GI50 (CAKI-1): 61.1 µM (inactive)
GI50 (SNB-19): 41 µM (inactive)
GI50 (786-0): 22.6 µM (inactive)
GI50 (HT-29): 87.3 µM (inactive)
GI50 (SF-268): 54.3 µM (inactive)
GI50 (HCC 2998): 83.6 µM (inactive)
GI50 (TK-10): 26.8 µM (inactive)
GI50 (U-251): 40.9 µM (inactive)

O=C1/C(=C/c2cccc(Br)c2)CSC/C1=C\c1cccc(Br)c1
GI50 (BT-549): 2.13 µM (inactive)
GI50 (SK-OV-3): 5.79 µM (inactive)
GI50 (SK-MEL-5): 1.87 µM (inactive)
GI50 (RPMI-8226): 0.537 µM (active)
GI50 (HOP-92): 3.36 µM (inactive)
GI50 (NCI/ADR-RES): 2.34 µM (inactive)
GI50 (NCI-H522): 1.87 µM (inactive)
GI50 (MDA-N): 2.65 µM (inactive)
GI50 (K562): 2.36 µM (inactive)
GI50 (CAKI-1): 2.47 µM (inactive)
GI50 (SNB-19): 2.88 µM (inactive)
GI50 (786-0): 3.45 µM (inactive)
GI50 (HT-29): 2.29 µM (inactive)
GI50 (SF-268): 5.33 µM (inactive)
GI50 (HCC 2998): 1.78 µM (inactive)
GI50 (TK-10): 5.69 µM (inactive)
GI50 (U-251): 1.87 µM (inactive)

Cc1cccc(NC(=O)CC(=O)N2N=C(N3c4ccccc4Sc4ccccc43)CC2c2ccccc2)c1 (configuration not stated)
GI50 (BT-549): > 100 µM (inactive)
GI50 (SK-OV-3): > 100 µM (inactive)
GI50 (SK-MEL-5): > 100 µM (inactive)
GI50 (RPMI-8226): > 100 µM (inactive)
GI50 (HOP-92): > 100 µM (inactive)
GI50 (NCI/ADR-RES): > 100 µM (inactive)
GI50 (Hs-578T): > 100 µM (inactive)
GI50 (NCI-H522): > 100 µM (inactive)
GI50 (MDA-MB-435): > 100 µM (inactive)
GI50 (K562): > 100 µM (inactive)
GI50 (SNB-19): > 100 µM (inactive)
GI50 (786-0): > 100 µM (inactive)
GI50 (HT-29): > 100 µM (inactive)
GI50 (SF-268): > 100 µM (inactive)
GI50 (HCC 2998): > 100 µM (inactive)
GI50 (TK-10): > 100 µM (inactive)
GI50 (U-251): > 100 µM (inactive)

C[N+](C)([O-])Cc1cccc(NC(=O)c2ccc(C(=O)Nc3cccc(C[N+](C)(C)[O-])c3)cc2)c1
GI50 (BT-549): > 100 µM (inactive)
GI50 (SK-OV-3): > 100 µM (inactive)
GI50 (SK-MEL-5): > 100 µM (inactive)
GI50 (RPMI-8226): > 100 µM (inactive)
GI50 (HOP-92): > 100 µM (inactive)
GI50 (NCI/ADR-RES): > 100 µM (inactive)
GI50 (NCI-H522): > 100 µM (inactive)
GI50 (K562): > 100 µM (inactive)
GI50 (CAKI-1): > 100 µM (inactive)
GI50 (SNB-19): > 100 µM (inactive)
GI50 (786-0): > 100 µM (inactive)
GI50 (HT-29): > 100 µM (inactive)
GI50 (SF-268): > 100 µM (inactive)
GI50 (HCC 2998): > 100 µM (inactive)
GI50 (TK-10): > 100 µM (inactive)
GI50 (U-251): > 100 µM (inactive)

CNC(=O)C1(C#N)C(c2ccccc2)C(C#N)(C(=O)NC)C1c1ccccc1 (configuration not stated)
GI50 (SK-OV-3): > 100 µM (inactive)
GI50 (SK-MEL-5): > 100 µM (inactive)
GI50 (RPMI-8226): 87.1 µM (inactive)
GI50 (HOP-92): > 100 µM (inactive)
GI50 (NCI/ADR-RES): > 100 µM (inactive)
GI50 (Hs-578T): > 100 µM (inactive)
GI50 (NCI-H522): > 100 µM (inactive)
GI50 (MDA-MB-435): > 100 µM (inactive)
GI50 (MDA-N): > 100 µM (inactive)
GI50 (K562): 24.4 µM (inactive)
GI50 (CAKI-1): > 100 µM (inactive)
GI50 (SNB-19): 27.4 µM (inactive)
GI50 (786-0): > 100 µM (inactive)
GI50 (HT-29): > 100 µM (inactive)
GI50 (SF-268): > 100 µM (inactive)
GI50 (HCC 2998): > 100 µM (inactive)
GI50 (TK-10): > 100 µM (inactive)
GI50 (U-251): > 100 µM (inactive)

COc1cccc(CCNC(=O)Cc2ccccc2CCO)c1
GI50 (BT-549): > 100 µM (inactive)
GI50 (SK-OV-3): > 100 µM (inactive)
GI50 (SK-MEL-5): > 100 µM (inactive)
GI50 (RPMI-8226): > 10 µM (inactive)
GI50 (HOP-92): > 100 µM (inactive)
GI50 (NCI/ADR-RES): > 100 µM (inactive)
GI50 (Hs-578T): > 100 µM (inactive)
GI50 (NCI-H522): > 100 µM (inactive)
GI50 (MDA-MB-435): > 100 µM (inactive)
GI50 (K562): > 100 µM (inactive)
GI50 (CAKI-1): > 100 µM (inactive)
GI50 (SNB-19): > 100 µM (inactive)
GI50 (786-0): > 100 µM (inactive)
GI50 (HT-29): > 100 µM (inactive)
GI50 (SF-268): > 100 µM (inactive)
GI50 (HCC 2998): > 100 µM (inactive)
GI50 (TK-10): > 100 µM (inactive)
GI50 (U-251): > 100 µM (inactive)

COc1cccc(CC(C)NCC(O)c2ccc(O)c(O)c2)c1 (configuration not stated)
GI50 (BT-549): 42.7 µM (inactive)
GI50 (SK-OV-3): 16.6 µM (inactive)
GI50 (SK-MEL-5): 60.3 µM (inactive)
GI50 (RPMI-8226): 39.2 µM (inactive)
GI50 (HOP-92): 6.59 µM (inactive)
GI50 (NCI/ADR-RES): > 100 µM (inactive)
GI50 (Hs-578T): 57.1 µM (inactive)
GI50 (NCI-H522): 34.8 µM (inactive)
GI50 (MDA-MB-435): 44.4 µM (inactive)
GI50 (K562): 94.4 µM (inactive)
GI50 (CAKI-1): 35 µM (inactive)
GI50 (SNB-19): 32.3 µM (inactive)
GI50 (786-0): 37.8 µM (inactive)
GI50 (HT-29): > 100 µM (inactive)
GI50 (SF-268): 50.5 µM (inactive)
GI50 (TK-10): 25.6 µM (inactive)
GI50 (U-251): 45.6 µM (inactive)
